# Measured values as given in US4434788A, “Enhancer of anti-tumor effect” (Yamasa Shoyu Kabushiki Kaisha, priority 1980, dated 1984).
# Read-outs that look alike come from different tables or passages of the source.
# How the values were obtained:
# [1] = Plating efficiency of stationary-phase HA-1 cells given enhancer immediately after 1,000 R X-ray (inhibition of PLDR); format: cell-based, Chinese hamster; conditions: chinese hamster, ha-1 cells, no irradiation, control 51, read-out: Plating efficiency, treated only with enhancer (after 7 hours)
# Method: (§1) (1) Cells under stationary phase, prepared by planting 2×10^5 cells/well of Chinese hamster-HA-1 cells in a multiwell dish and exchanging cultural medium every day starting on the third day and thereafter were irradiated with 1,000 R of X-rays. Immediately after radiation, 3'-dUrd, and 3'-dGuo in HANKs' balanced salt solution were administered. Then, after elapse of various times, the cells were taken off with trypsin, and a suitable number of cells were transferred into petri dishes for testing colony forming ability and plating efficiencies. The percentages of survival were calculated with corrections by the plating efficiencies with the pharmaceutical agents alone.
# [2] = tested on: Chinese hamster-HA-1 cells; experiment: as above; format: cell-based; conditions: for Plating efficiency after 4 hours: control 2.1; for Plating efficiency after 7 hours: control 3.3
# Method: as §1
# [3] = tested on: EMT-6 tumors; experiment: Radiosensitizing effect on EMT-6 tumor in mouse, 1500 rad, tumor size and cure; format: in vivo, BALB/c-strain female mice
# [4] = tested on: EMT-6 tumors; experiment: Radiosensitizing effect on EMT-6 tumor in mouse, cure percentage and TCD50; format: in vivo, BALB/c-strain female mice; conditions: 100 mg/kg i.p. after irradiation; for Cure number/Number treated / Cure percentage: >90 days
# Method: EMT-6 tumor cells (2×10^5) were inoculated intradermally into the right thighs of BALB/c-strain female mice (8 weeks old). When the tumor sizes reached 5.5 to 8.0 mm after inoculation of the tumor cells, irradiation was locally carried out with 1,000 rad to 2,700 rad of 32 MeV electron beam under no anesthesia, and thereafter 3'-dAdo and 3'-dGuo, each dissolved in physiological saline solution, were administered intraperitoneally in a dose of 100 mg/kg. After the treatments, observation was continued for longer than 90 days, and the cure percentages were determined for comparison with the control group. [formula]
# (2) TCD50 =50% Tumor control dose
# [5] = tested on: EMT-6 tumors; experiment: Enhancement of the effect of anti-tumor agents on EMT-6 tumor in mouse; format: in vivo, BALB/c-strain mice
# Method: (1) EMT-6 tumor cells (1×10^6) were inoculated intradermally into the right thighs of BALB/c-strain mice (7 weeks old). On the 10th day after inoculation of the tumor cells and thereafter, various enhancer chemicals in physiological saline solutions were administered intrapenitoneally to the mouse every other day in the indicated doses for respective agents. The pharmaceutical agents of the present invention were administered 30 minutes after administration of the anti-tumor agents. After commencement of the treatment with pharmaceutical agents, the tumor sizes were measured every other day and compared with the control group.
# [6] = Acute toxicity test; conditions: mouse, in vivo, ip, ICR mice, male, one week; estimated
# Method: A quantity of 3'-dGuo was administered intraperitoneally to ICR mice (male, 8-weeks old, 10 mice for each group) in a dose of 500 mg/kg or 1,000 mg/kg, and the mice were subjected to observation for a week.
# [7] = tested on: potentially lethal damage repair; experiment: PLDR-inhibiting / radiosensitizing activity (general statements)
# [8] = Irradiation 1500 rad + 3'-dGuo 2.0 mg/mouse, irradiation alone 0%
# [9] = Irradiation 1500 rad + 3'-dGuo 2.0 mg/mouse, irradiation alone 0/10
structure (smiles),measurement,setting,value
"Nc1nc2c(ncn2[C@@H]2O[C@H](CO)C[C@H]2O)c(=O)[nH]1 [3'-dGuo, 3'-deoxyguanosine]",viability at 7 h,[1]; 3'-dGuo 10 μg/ml,50%
same,viability at 7 h,[1]; 3'-dGuo 20 μg/ml,47%
same,viability at 7 h,[1]; 3'-dGuo 40 μg/ml,45%
same,Plating efficiency after 4 hours,"[2]; 3'-dGuo 10 μg/ml after 1,000 R",1.6%
same,Plating efficiency after 7 hours,"[2]; 3'-dGuo 10 μg/ml after 1,000 R",2.6%
same,Plating efficiency after 1 hour,"[2]; 3'-dGuo 10 μg/ml after 1,000 R, control (0 μg/ml) 1.4",1.3%
same,Plating efficiency after 1 hour,"[2]; 3'-dGuo 20 μg/ml after 1,000 R, control 1.4",1.2%
same,Plating efficiency after 4 hours,"[2]; 3'-dGuo 20 μg/ml after 1,000 R",1.3%
same,Plating efficiency after 7 hours,"[2]; 3'-dGuo 20 μg/ml after 1,000 R",2.0%
same,Plating efficiency after 1 hour,"[2]; 3'-dGuo 40 μg/ml after 1,000 R, control 1.4",0.96%
same,Plating efficiency after 4 hours,"[2]; 3'-dGuo 40 μg/ml after 1,000 R",1.1%
same,Plating efficiency after 7 hours,"[2]; 3'-dGuo 40 μg/ml after 1,000 R",1.6%
same,Inhibition of repair (PLDR) after irradiation with X-rays,"[2]; HA-1 cells, Table 1",found to inhibit repair (PLDR) after irradiation with X-rays
same,Toxicity as examined by plating efficiencies,"[2]; HA-1 cells, Table 1",Substantially no toxicity was observed
same,Mean tumor diameter 2 weeks after treatment,"[3]; 3'-dGuo 100 mg/kg i.p. after 1500 rad, n = 19, baseline 6.19 ± 0.16 mm, irradiation alone 7.41",6.82 ± 0.44 mm
same,Mean tumor diameter 3 weeks after treatment,"[3]; 3'-dGuo 100 mg/kg i.p. after 1500 rad, n = 19, baseline 6.19 ± 0.16 mm, irradiation alone 8.29",4.83 ± 0.80 mm
same,Diameter ratio 2 weeks after treatment,"[3]; 3'-dGuo 100 mg/kg i.p. after 1500 rad, n = 19, irradiation alone 1.09",1.09 ± 0.06
same,Diameter ratio 3 weeks after treatment,"[3]; 3'-dGuo 100 mg/kg i.p. after 1500 rad, n = 19, irradiation alone 1.17",0.72 ± 0.12
same,Volume ratio 2 weeks after treatment,"[3]; 3'-dGuo 100 mg/kg i.p. after 1500 rad, n = 19, irradiation alone 1.44",1.49 ± 0.19
same,Volume ratio 3 weeks after treatment,"[3]; 3'-dGuo 100 mg/kg i.p. after 1500 rad, n = 19, irradiation alone 2.06",0.92 ± 0.21
same,Cure (number of mice),"[3]; Irradiation 1500 rad + 3'-dGuo 2.0 mg/mouse, 28 days, irradiation alone 1/10",6/19
same,Cure (percent),"[3]; Irradiation 1500 rad + 3'-dGuo 2.0 mg/mouse, 28 days, irradiation alone 10%",32%
same,0.5 to less than 1 of volume ratio excluding cure; Tumor regression rate: slow (percent),[3]; [8],18%
same,Less than 0.5 of volume ratio excluding cure; Tumor regression rate: rapid (percent),[3]; [8],11%
same,0.5 to less than 1 of volume ratio excluding cure; Tumor regression rate: slow (number),[3]; [9],3/19
same,Less than 0.5 of volume ratio excluding cure; Tumor regression rate: rapid (number),[3]; [9],2/19
same,1.0 to less than 2.0 of volume ratio excluding cure; regrowth: slow (number),"[3]; Irradiation 1500 rad + 3'-dGuo 2.0 mg/mouse, irradiation alone 3/10",6/19
same,2.0 or more of volume ratio excluding cure; regrowth: rapid (number),"[3]; Irradiation 1500 rad + 3'-dGuo 2.0 mg/mouse, irradiation alone 6/10",2/19
same,1.0 to less than 2.0 of volume ratio excluding cure; regrowth: slow (percent),"[3]; Irradiation 1500 rad + 3'-dGuo 2.0 mg/mouse, irradiation alone 30%",32%
same,2.0 or more of volume ratio excluding cure; regrowth: rapid (percent),"[3]; Irradiation 1500 rad + 3'-dGuo 2.0 mg/mouse, irradiation alone 60%",11%
same,TCD50 (50% Tumor control dose),"[4]; radiation doses given in rad, control 2400",1250 rad
same,TCD50 ratio,[4]; relative to control 1.0,0.52
same,Cure number/Number treated,"[4]; 1,000 rad, control 1/23",8/26
same,Cure percentage,"[4]; 1,000 rad, control 4%",31%
same,Cure number/Number treated,"[4]; 1,500 rad, control 8/44",21/29
same,Cure percentage,"[4]; 1,500 rad, control 18%",72%
same,Cure number/Number treated,"[4]; 2,100 rad, control 9/24",22/28
same,Cure percentage,"[4]; 2,100 rad, control 38%",79%
same,Cure number/Number treated,"[4]; 2,700 rad, control 13/28",22/25
same,Cure percentage,"[4]; 2,700 rad, control 47%",88%
same,Mean tumor diameter 18 days after commencement of treatment,"[5]; 3'-dGuo alone 50 mg/kg × 6, n = 10, before treatment 6.75 ± 1.20, control 11.43 ± 2.30",10.92 ± 3.23 mm
same,Mean tumor diameter ratio 18 days after commencement of treatment,"[5]; 3'-dGuo alone 50 mg/kg × 6, n = 10, control 1.97 ± 0.40",1.62 ± 0.48
same,Mean tumor diameter 7 days after commencement of treatment,"[5]; 3'-dGuo alone 50 mg/kg × 8, n = 6, before treatment 6.08 ± 0.69, control 7.38 ± 0.69",7.45 ± 2.07 mm
same,Mean tumor diameter 14 days after commencement of treatment,"[5]; 3'-dGuo alone 50 mg/kg × 8, n = 6, before treatment 6.08 ± 0.69, control 9.20 ± 1.78",9.10 ± 2.65 mm
same,Mean tumor diameter ratio 7 days after commencement of treatment,"[5]; 3'-dGuo alone 50 mg/kg × 8, n = 6, control 1.27 ± 0.17",1.21 ± 0.24
same,Mean tumor diameter ratio 14 days after commencement of treatment,"[5]; 3'-dGuo alone 50 mg/kg × 8, n = 6, control 1.57 ± 0.40",1.48 ± 0.30
same,Mean tumor diameter 7 days after commencement of treatment,"[5]; ACNU 25 mg/kg × 5 combined with 3'-dGuo 50 mg/kg × 5, n = 7, before treatment 6.23 ± 1.04, control 7.38",5.14 ± 2.29 mm
same,Mean tumor diameter 14 days after commencement of treatment,"[5]; ACNU 25 mg/kg × 5 combined with 3'-dGuo 50 mg/kg × 5, n = 7, before treatment 6.23 ± 1.04, control 9.20",4.90 ± 1.94 mm
same,Mean tumor diameter ratio 7 days after commencement of treatment,"[5]; ACNU 25 mg/kg × 5 combined with 3'-dGuo 50 mg/kg × 5, n = 7, control 1.27",0.80 ± 0.22
same,Mean tumor diameter ratio 14 days after commencement of treatment,"[5]; ACNU 25 mg/kg × 5 combined with 3'-dGuo 50 mg/kg × 5, n = 7, control 1.57",0.76 ± 0.19
same,Mean tumor diameter 7 days after commencement of treatment,"[5]; ADM 2 mg/kg × 8 combined with 3'-dGuo 50 mg/kg × 8, n = 10, before treatment 6.59 ± 1.14, control 7.38",6.16 ± 2.00 mm
same,Mean tumor diameter 14 days after commencement of treatment,"[5]; ADM 2 mg/kg × 8 combined with 3'-dGuo 50 mg/kg × 8, n = 10, before treatment 6.59 ± 1.14, control 9.20",6.30 ± 2.54 mm
same,Mean tumor diameter ratio 7 days after commencement of treatment,"[5]; ADM 2 mg/kg × 8 combined with 3'-dGuo 50 mg/kg × 8, n = 10, control 1.27",0.92 ± 0.18
same,Mean tumor diameter ratio 14 days after commencement of treatment,"[5]; ADM 2 mg/kg × 8 combined with 3'-dGuo 50 mg/kg × 8, n = 10, control 1.57",0.94 ± 0.31
same,Mean tumor diameter 18 days after commencement of treatment,"[5]; BLM 25 mg/kg × 4 combined with 3'-dGuo 50 mg/kg × 4, n = 10, before treatment 6.65 ± 0.96, control 11.43",5.60 ± 1.67 mm
same,Mean tumor diameter ratio 18 days after commencement of treatment,"[5]; BLM 25 mg/kg × 4 combined with 3'-dGuo 50 mg/kg × 4, n = 10, control 1.97",0.84 ± 0.25
same,Mean tumor diameter 18 days after commencement of treatment,"[5]; FT-207 100 mg/kg × 6 combined with 3'-dGuo 50 mg/kg × 6, n = 11, before treatment 6.39 ± 0.94, control 11.43",3.18 ± 2.38 mm
same,Mean tumor diameter ratio 18 days after commencement of treatment,"[5]; FT-207 100 mg/kg × 6 combined with 3'-dGuo 50 mg/kg × 6, n = 11, control 1.97",0.50 ± 0.37
same,Mean tumor diameter 7 days after commencement of treatment,"[5]; araC 50 mg/kg × 8 combined with 3'-dGuo 50 mg/kg × 8, n = 7, before treatment 6.04 ± 0.64, control 7.38",5.96 ± 1.77 mm
same,Mean tumor diameter 14 days after commencement of treatment,"[5]; araC 50 mg/kg × 8 combined with 3'-dGuo 50 mg/kg × 8, n = 7, before treatment 6.04 ± 0.64, control 9.20",5.34 ± 1.57 mm
same,Mean tumor diameter ratio 7 days after commencement of treatment,"[5]; araC 50 mg/kg × 8 combined with 3'-dGuo 50 mg/kg × 8, n = 7, control 1.27",0.97 ± 0.19
same,Mean tumor diameter ratio 14 days after commencement of treatment,"[5]; araC 50 mg/kg × 8 combined with 3'-dGuo 50 mg/kg × 8, n = 7, control 1.57",0.88 ± 0.21
same,LD50 at 168 h,[6],> 1000 mg/kg
same,Radiosensitizing activity,[7],excellent radiosensitizing activities
